The source of these data is article PMC6801448, “The Antioxidant and Antiproliferative Activities of 1,2,3-Triazolyl-L-Ascorbic Acid Derivatives” (International Journal of Molecular Sciences, 2019).

The test system of this test is MCF-7 cells. As to the kind of experiment: Annexin V apoptosis detection assay. In kind it is cell-based, Human. As for the experimental part: A total of 2 × 10^4 MCF-7 cells were seeded into 8-well Nunc Lab-Tek II Chamber Slide system (Thermo Fischer Scientific, Waltham, MA, USA), and treated with compound 4e at 1 × IC50 and 2 × IC50 for 24 and 48 h. The assay (Annexin-V-FLUOS Staining kit, Roche Applied Science, Penzberg, Germany) was preformed according to the manufacturer protocol. Slides were analyzed by fluorescence microscopy (Zeiss Axio Observer Z1 Inverted Phase Contrast Fluorescent Microscope, Jena, Germany)).

Setting [1] is: MCF-7, 24 h, 6.72 µM (1 × IC50).
[2] abbreviates: MCF-7, 24 h, 13.44 µM (2 × IC50).
[3] abbreviates: MCF-7, 24 h, 1 × IC50, versus untreated cells.
Where [4] appears, read: MCF-7, 48 h, 6.72 µM (1 × IC50).
[5] abbreviates: MCF-7, 48 h, 13.44 µM (2 × IC50).

As for `O=C1O[C@H]([C@@H](O)Cn2cc(-c3ccc(Br)cc3)nn2)C(O)=C1O` [Compound 4e, 6-[4-(4-bromophenyl)-1,2,3-triazol-1-yl]-6-deoxy-L-ascorbic acid], under setting [1], the “Early Apoptosis (%)” value was 30.6%, the “Late Apoptosis (%)” value turned out to be 6.4% and the “Necrosis (%)” value was found to be 0.8%. In addition, under setting [2], the “Early Apoptosis (%)” value is listed as 5.3%, the “Late Apoptosis (%)” value came to 38.1% and the “Necrosis (%)” value came out at 15.9%. Under setting [3], the “increase in early apoptotic cell population” value was found to be 12.4% and the “increase in late apoptotic cell population” value is 2.0%. Under setting [4], the “Early Apoptosis (%)” value is recorded as 46.6%, the “Late Apoptosis (%)” value was determined as 4.2% and the “Necrosis (%)” value was found to be 0.8%. Under setting [5], the “Early Apoptosis (%)” value came out at 9.1%, the “Late Apoptosis (%)” value turned out to be 2.3% and the “Necrosis (%)” value was 0%. Also, for the setting “MCF-7, 48 h, 1 × IC50, versus untreated cells”, the “percentage of cells in early apoptosis higher than in untreated cells” value was found to be 35.2%.
